We go through one molecule from EP3184514A1, “AUTOPHAGY INHIBITORS” (Deutsches Krebsforschungszentrum, priority 2015, dated 2017).

One assay has as its target T1, GST-tagged LC3B (Homo sapiens, UniProt Q9GZQ8).
T1 construct: made in house; host or cells: E. coli Rosetta (DE3)
Nature of the assay: GST-pulldown with purified GST-LC3B and lysates of treated cells. As to conditions: HEK293T cells treated 100 µM, 1 hour; remaining binding compared to DMSO control. As to the method:
A gene encoding for human LC3B protein inserted in a pET-GST expression vector was used as a template. Rosetta (DE3) competent cells were transformed by started procedure, plated on an LB agar plate with ampicillin (100 µg/ml) and left overnight at 37 °C. Overnight culture was prepared from a single colony and shaken at 180 rpm at 37 °C. LB medium with ampicillin was inoculated with overnight culture (10 ml per 500 ml of LB) and shaken until the optical density at 600 nm (OD600) reached a value of approximately 0.6. Protein expression was then induced with 400 µM IPTG and further incubated for 4 hours. Bacterial culture was centrifuged for 20 minutes at 6000 rpm at 4 °C. The pellet was then resuspended in lysis buffer (20 mM TRIS-HCl pH 7.5, 10 mM EDTA, 5 mM EGTA, 150 mM NaCl, 0.5 % NP40, 1 % Triton X-100, 1 mM DTT, 2 mg/ml lysozyme, 0.05 U/µl benzonase, 1x protease inhibitor cocktail). Lysate was then stored at -20 °C over night. Sample was thawed in water bath and sonicated on ice (40 % amplitude, 30 seconds pulse/30 seconds pause cycle). Lysate was centrifuged at 10000xg at 4 °C for half an hour. Meanwhile, 500 µl of glutathione sepharose beads was equilibrated with lysis buffer and then added to the supernatant. The mixture was incubated and rotated at room temperature for 2 hours. After binding of the protein to the beads, beads were spun down at 500xg at 4 °C for 5 minutes. […]

In a further assay the test system is PANC1, HCT116, A549. Nature of the assay: LC3B and p62 spots in autophagy-dependent cancer cell lines. The following applies: 1 hr, 100 µM; all three cell lines. The class given is cell-based. The protocol:
For screening purposes, cells were seeded in 384 well plates and left over night for attachment. […] For controls, cells were treated with 250 nM torin and/or 100 nM BafA1 for 2 hours.
Afterwards, medium was removed and 4 % (w/v) paraformaldehyde (PFA) in PBS buffer was added to the cells for 20 minutes, incubated at room temperature. Cells were permeabilized with 0.1 % (v/v) Triton X-100 for 10 min at room temperature and washed with PBS. Cells were blocked with 3 % (w/v) bovine serum albumin (BSA) in PBS for 45 minutes at 37 °C and then incubated with anti-LC3B (PM036, MBL) or anti-p62 (PM045 or M162-3, MBL) primary antibody diluted in 0.3 % BSA (1:2000 or 1:500) for 1.5-2 hours at 37 °C. Cells were washed three times with PBS. Secondary Alexa Fluor 488 - labeled antibodies (A-11008, Invitrogen) were diluted in 0.3 % BSA (1:2500) and incubated on cells for 15 minutes at 37 °C. Cells were washed once with PBS, incubated with DRAQ5 (#4084, Cell Signaling) diluted in PBS (1:5000) for 10 minutes and washed three times with PBS.
384 well plates were then analyzed with an automated confocal microscope Opera (PerkinElmer) enabling high throughput high content screening image analysis. Confocal images were taken at the Institute of Biochemistry II, Goethe University Medical School, Theodor-Stern-Kai 7, 60590 Frankfurt am Main, Germany. […] Signal was detected with a fast gated CCD camera. […]

The test system of the next assay is U2OS cells. Description: MTT cell viability assay. It is filed as cell-based, Human. The protocol:
(§1) The MTT assay is a colorimetric assay for assessing cell viability. NAD(P)H-dependent cellular oxidoreductase enzymes in metabolic active cells reduce the tetrazolium dye MTT 3-(4,5-dimethylthiazol-2-yl)-2,5-diphenyltetrazolium bromide to its insoluble purple formazan. All cell types were seeded in 96 well plates and left over night for attachment. Next day, cells were treated with 100 µM compound I-1 for 24, 48, 72, and 96 hours. For controls, 1 µM staurosporine and 100 nM BafA1 were used. The assay was performed according to manufacturer's instructions and the absorbance of the formazan product was measured at 595 nm.
Background: Tetrazolium dyes change colour on reduction, which living cells bring about.

In the next assay the test system is A549. Description: MTT cell viability assay. The class given is cell-based. The protocol:
as §1

In a further assay the test system is HCT116. Description: MTT cell viability assay. As to conditions: 72 and 96 hours. The class given is cell-based. The protocol: as §1
The subject of the next assay is PANC1. Nature of the assay: MTT cell viability assay. The class given is cell-based. As to conditions: 72 and 96 hours. As to the method: as §1

Take `Brc1ccc(CSC2=NCN(Cc3cccnc3)CN2)cc1` [Compound I-1, 6-((4-bromobenzyl)thio)-3-(pyridin-3-ylmethyl)-1,2,3,4-tetrahydro-1,3,5-triazine]: the “binding of p62 and ATG13 to GST-tagged LC3B” value on GST-tagged LC3B is on record as “approximately 50%”. Also, in the assay on PANC1, HCT116, A549, the “number of LC3B and p62 spots” value is given as “increased”. The cell survival result in the assay on U2OS cells (72 and 96 hours) was “almost no cell survival”; with HCT116, “almost no cell survival”. Besides, the cell viability entry with U2OS cells (24 hours, 100 µM) is “decreased viability”; in the assay with A549 (48 hours), “unaffected”. The reduced cell viability entry is “approximately 50%” with A549 (72 and 96 hours); “approximately 50%” in the assay with PANC1.
